Measured values: US8450304B2, “4-azetidinyl-1-heteroaryl-cyclohexanol antagonists of CCR2” (Janssen Pharmaceutica N.V., priority 2008, dated 2013)

What follows are compounds tested against T1, CCR2 (Homo sapiens, UniProt P41597) (assay: MCP-1 Receptor Binding Assay in THP-1 Cells). Conditions: 0.5 nM 125I labeled MCP-1, 2 hours at 30° C., read-out: Inhibition of MCP-1 Binding IC50, CCR2 Binding.
T1 construct: host or cells: THP-1 (human monocytic cell line), whole cells
Method: Compounds of the invention were subjected to various representative biological tests. […] MCP-1 Receptor Binding Assay in THP-1 Cells
Human monocytic cell line THP-1 cells were obtained from American Type Culture Collection (Manassas, Va., USA). […] The cell density was maintained […].
1 μM cold MCP-1 was used for nonspecific binding.

T1 sequence (P41597 whole entry): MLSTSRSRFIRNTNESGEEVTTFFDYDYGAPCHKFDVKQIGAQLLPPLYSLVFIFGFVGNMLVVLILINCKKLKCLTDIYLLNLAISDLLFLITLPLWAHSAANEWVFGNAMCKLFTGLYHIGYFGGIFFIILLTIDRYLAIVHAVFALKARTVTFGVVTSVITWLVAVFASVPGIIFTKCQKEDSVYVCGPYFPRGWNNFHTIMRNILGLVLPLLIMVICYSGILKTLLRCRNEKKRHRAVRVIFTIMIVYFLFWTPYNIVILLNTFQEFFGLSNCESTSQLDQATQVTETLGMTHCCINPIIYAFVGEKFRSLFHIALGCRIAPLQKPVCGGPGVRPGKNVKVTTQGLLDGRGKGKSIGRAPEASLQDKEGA

**Q.** How did the IC50 turn out when `Cc1cc(C2(O)CCC(N3CC(NC(=O)CNC(=O)c4cccc(C(F)(F)F)c4)C3)CC2)sn1` (single isomer, unassigned) [Example 58a, N-({1-[4-Hydroxy-4-(3-methyl-isothiazol-5-yl)-cyclohexyl]-azetidin-3-ylcarbamoyl}-methyl)-3-trifluoromethyl-benzamide] was run?
**A.** The IC50 was 90 nM.

**Q.** Which IC50 does the source give for `COc1ncc(C2(O)CCC(N3CC(NC(=O)CNC(=O)c4cccc(C(F)(F)F)c4)C3)CC2)cn1` (single isomer, unassigned) [Example 28a, N-({1-[4-Hydroxy-4-(2-methoxy-pyrimidin-5-yl)-cyclohexyl]-azetidin-3-ylcarbamoyl}-methyl)-3-trifluoromethyl-benzamide] here?
**A.** Its IC50 is 1100 nM.

**Q.** `O=C(CNC(=O)c1cccc(C(F)(F)F)c1)NC1CN(C2CCC(O)(c3nc4ccccc4o3)CC2)C1` (centres unmarked) [Example 63, N-{[1-(4-Benzooxazol-2-yl-4-hydroxy-cyclohexyl)-azetidin-3-ylcarbamoyl]-methyl}-3-trifluoromethyl-benzamide] was tested. Which IC50 did it give?
**A.** The IC50 was 1000 nM.

**Q.** How did the IC50 turn out when `O=C(CNC(=O)c1cccc(C(F)(F)F)c1)NC1CN(C2CCC(O)(c3cc(Br)cs3)CC2)C1` (centres unmarked) [Example 60, N-({1-[4-(4-Bromo-thiophen-2-yl)-4-hydroxy-cyclohexyl]-azetidin-3-ylcarbamoyl}-methyl)-3-trifluoromethyl-benzamide] was run?
**A.** Its IC50 is 230 nM.

**Q.** For `O=C(CNC(=O)c1cc(C(F)(F)F)ccc1C(F)(F)F)NC1CN(C2CCC(O)(c3nccs3)CC2)C1` (centres unmarked) [Example 68, N-{[1-(4-Hydroxy-4-thiazol-2-yl-cyclohexyl)-azetidin-3-ylcarbamoyl]-methyl}-2,5-bis-trifluoromethyl-benzamide], which IC50 is on record?
**A.** The IC50 was 500 nM.

**Q.** Which IC50 does the source give for `CC(C)(C)Oc1ncc(C2(O)CCC(N3CC(NC(=O)CNC(=O)c4cccc(C(F)(F)F)c4)C3)CC2)s1` (centres unmarked) [Example 54, N-({1-[4-(2-tert-Butoxy-thiazol-5-yl)-4-hydroxy-cyclohexyl]-azetidin-3-ylcarbamoyl}-methyl)-3-trifluoromethyl-benzamide] here?
**A.** The IC50 was 280 nM.

**Q.** `O=C(CNC(=O)c1cccc(C(F)(F)F)c1)NC1CN(C2CCC(O)(c3ccc(Br)cn3)CC2)C1` (single isomer, unassigned) [Example 25a, N-({1-[4-(5-Bromo-pyridin-2-yl)-4-hydroxy-cyclohexyl]-azetidin-3-ylcarbamoyl}-methyl)-3-trifluoromethyl-benzamide] was tested. Which IC50 did it give?
**A.** The IC50 was 3100 nM.

**Q.** For `Cc1ncc(C2(O)CCC(N3CC(NC(=O)CNC(=O)c4cccc(C(F)(F)F)c4)C3)CC2)s1` (single isomer, unassigned) [Example 41a, N-({1-[4-Hydroxy-4-(2-methyl-thiazol-5-yl)-cyclohexyl]-azetidin-3-ylcarbamoyl}-methyl)-3-trifluoromethyl-benzamide], which IC50 is on record?
**A.** Its IC50 is 200 nM.

**Q.** How did the IC50 turn out when `O=C(CNC(=O)c1cccc(C(F)(F)F)c1)NC1CN(C2CCC(O)(c3cnc(N4CCCC4)s3)CC2)C1` (centres unmarked) [Example 51, N-({1-[4-Hydroxy-4-(2-pyrrolidin-1-yl-thiazol-5-yl)-cyclohexyl]-azetidin-3-ylcarbamoyl}-methyl)-3-trifluoromethyl-benzamide] was run?
**A.** Its IC50 is 3300 nM.

**Q.** How did the IC50 turn out when `Cn1cc(Br)c(C2(O)CCC(N3CC(NC(=O)CNC(=O)c4cccc(C(F)(F)F)c4)C3)CC2)n1` (single isomer, unassigned) [Example 31a, N-({1-[4-(4-Bromo-1-methyl-1H-pyrazol-3-yl)-4-hydroxy-cyclohexyl]-azetidin-3-ylcarbamoyl}-methyl)-3-trifluoromethyl-benzamide] was run?
**A.** Its IC50 is 440 nM.

**Q.** With `O=C(CNC(=O)c1cccc(C(F)(F)F)c1)NC1CN(C2CCC(O)(c3ncc(CO)s3)CC2)C1` (single isomer, unassigned) [Example 35a, N-({1-[4-Hydroxy-4-(5-hydroxymethyl-thiazol-2-yl)-cyclohexyl]-azetidin-3-ylcarbamoyl}-methyl)-3-trifluoromethyl-benzamide] as the compound, how does the IC50 read?
**A.** Its IC50 is 240 nM.

**Q.** With `O=C(CNC(=O)c1cccc(C(F)(F)F)c1)NC1CN(C2CCC(O)(c3ccc(OCc4ccccc4)nc3)CC2)C1` (single isomer, unassigned) [Example 7a, N-({1-[4-(6-Benzyloxy-pyridin-3-yl)-4-hydroxy-cyclohexyl]-azetidin-3-ylcarbamoyl}-methyl)-3-trifluoromethyl-benzamide] as the compound, how does the IC50 read?
**A.** The IC50 was 1900 nM.

**Q.** Which IC50 does the source give for `O=C(CNC(=O)c1cccc(C(F)(F)F)c1)NC1CN(C2CCC(O)(c3nc4ccc(Br)cc4s3)CC2)C1` (single isomer, unassigned) [Example 36a, N-({1-[4-(6-Bromo-benzothiazol-2-yl)-4-hydroxy-cyclohexyl]-azetidin-3-ylcarbamoyl}-methyl)-3-trifluoromethyl-benzamide] here?
**A.** The IC50 was 3.8 nM.

**Q.** For `COc1cccc(C(=O)NCC(=O)NC2CN(C3CCC(O)(c4ccc(OC)nc4)CC3)C2)c1` (centres unmarked) [Example 23, N-({1-[4-Hydroxy-4-(6-methoxy-pyridin-3-yl)-cyclohexyl]-azetidin-3-ylcarbamoyl}-methyl)-3-methoxy-benzamide], which IC50 is on record?
**A.** Its IC50 is 14500 nM.

**Q.** `Cc1ccc(C2(O)CCC(N3CC(NC(=O)CNC(=O)c4cc(C(F)(F)F)cc(C(F)(F)F)c4)C3)CC2)cn1` (single isomer, unassigned) [Example 66a, N-({1-[4-Hydroxy-4-(6-methyl-pyridin-3-yl)-cyclohexyl]-azetidin-3-ylcarbamoyl}-methyl)-3,5-bis-trifluoromethyl-benzamide] was tested. Which IC50 did it give?
**A.** Its IC50 is 330 nM.

**Q.** For `C[S+]([O-])c1ncc(C2(O)CCC(N3CC(NC(=O)CNC(=O)c4cccc(C(F)(F)F)c4)C3)CC2)s1` (single isomer, unassigned) [Example 46, N-({1-[4-Hydroxy-4-(2-methanesulfinyl-thiazol-5-yl)-cyclohexyl]-azetidin-3-ylcarbamoyl}-methyl)-3-trifluoromethyl-benzamide], which IC50 is on record?
**A.** The IC50 was 660 nM.

**Q.** With `Cc1ccc(C2(O)CCC(N3CC(NC(=O)CNC(=O)c4cc(C(F)(F)F)ccc4Cl)C3)CC2)cn1` (single isomer, unassigned) [Example 70a, 2-Chloro-N-({1-[4-hydroxy-4-(6-methyl-pyridin-3-yl)-cyclohexyl]-azetidin-3-ylcarbamoyl}-methyl)-5-trifluoromethyl-benzamide] as the compound, how does the IC50 read?
**A.** Its IC50 is 590 nM.

**Q.** With `COc1ccc(C2(O)CCC(N3CC(NC(=O)CNC(=O)c4ccc(C(F)(F)F)cc4)C3)CC2)cn1` (centres unmarked) [Example 16, N-({1-[4-Hydroxy-4-(6-methoxy-pyridin-3-yl)-cyclohexyl]-azetidin-3-ylcarbamoyl}-methyl)-4-trifluoromethyl-benzamide] as the compound, how does the IC50 read?
**A.** Its IC50 is 6450 nM.

**Q.** With `Cc1ccc(C2(O)CCC(N3CC(NC(=O)CNC(=O)c4cc(F)cc(C(F)(F)F)c4)C3)CC2)cn1` (single isomer, unassigned) [Example 64a, 3-Fluoro-N-({1-[4-hydroxy-4-(6-methyl-pyridin-3-yl)-cyclohexyl]-azetidin-3-ylcarbamoyl}-methyl)-5-trifluoromethyl-benzamide] as the compound, how does the IC50 read?
**A.** Its IC50 is 37 nM.

**Q.** `Nc1ncc(C2(O)CCC(N3CC(NC(=O)CNC(=O)c4cccc(C(F)(F)F)c4)C3)CC2)s1` (centres unmarked) [Example 49, N-({1-[4-(2-Amino-thiazol-5-yl)-4-hydroxy-cyclohexyl]-azetidin-3-ylcarbamoyl}-methyl)-3-trifluoromethyl-benzamide] was tested. Which IC50 did it give?
**A.** The IC50 was 260 nM.

**Q.** `O=C(CNC(=O)c1cccc(C(F)(F)F)c1)NC1CN(C2CCC(O)(c3cccnc3)CC2)C1` (centres unmarked) [Example 15, N-{[1-(4-Hydroxy-4-pyridin-3-yl-cyclohexyl)-azetidin-3-ylcarbamoyl]-methyl}-3-trifluoromethyl-benzamide] was tested. Which IC50 did it give?
**A.** The IC50 was 190 nM.

**Q.** With `O=C(CNC(=O)c1cc(C(F)(F)F)cc(C(F)(F)F)c1)NC1CN(C2CCC(O)(c3nccs3)CC2)C1` (single isomer, unassigned) [Example 67a, N-{[1-(4-Hydroxy-4-thiazol-2-yl-cyclohexyl)-azetidin-3-ylcarbamoyl]-methyl}-3,5-bis-trifluoromethyl-benzamide] as the compound, how does the IC50 read?
**A.** Its IC50 is 370 nM.

**Q.** With `COc1ccc(C2(O)CCC(N3CC(NC(=O)CNC(=O)c4cc(F)cc(F)c4)C3)CC2)cn1` (centres unmarked) [Example 19, 3,5-Difluoro-N-({1-[4-hydroxy-4-(6-methoxy-pyridin-3-yl)-cyclohexyl]-azetidin-3-ylcarbamoyl}-methyl)-benzamide] as the compound, how does the IC50 read?
**A.** The IC50 was 4300 nM.

**Q.** Which IC50 does the source give for `N#CNc1ncc(C2(O)CCC(N3CC(NC(=O)CNC(=O)c4cccc(C(F)(F)F)c4)C3)CC2)s1` (centres unmarked) [Example 55, N-({1-[4-(2-Cyanoamino-thiazol-5-yl)-4-hydroxy-cyclohexyl]-azetidin-3-ylcarbamoyl}-methyl)-3-trifluoromethyl-benzamide] here?
**A.** Its IC50 is 1200 nM.

**Q.** For `COc1ncc(C2(O)CCC(N3CC(NC(=O)CNC(=O)c4cccc(C(F)(F)F)c4)C3)CC2)s1` (centres unmarked) [Example 52, N-({1-[4-Hydroxy-4-(2-methoxy-thiazol-5-yl)-cyclohexyl]-azetidin-3-ylcarbamoyl}-methyl)-3-trifluoromethyl-benzamide], which IC50 is on record?
**A.** The IC50 was 73 nM.

**Q.** `COc1ccc(C2(O)CCC(N3CC(NC(=O)CNC(=O)c4cccc(C#N)c4)C3)CC2)cn1` (centres unmarked) [Example 21, 3-Cyano-N-({1-[4-hydroxy-4-(6-methoxy-pyridin-3-yl)-cyclohexyl]-azetidin-3-ylcarbamoyl}-methyl)-benzamide] was tested. Which IC50 did it give?
**A.** Its IC50 is 7500 nM.

**Q.** How did the IC50 turn out when `COc1ccc(C2(O)CCC(N3CC(NC(=O)CNC(=O)c4ccc5c(c4)OCO5)C3)CC2)cn1` (centres unmarked) [Example 20, Benzo[1,3]dioxole-5-carboxylic acid ({1-[4-hydroxy-4-(6-methoxy-pyridin-3-yl)-cyclohexyl]-azetidin-3-ylcarbamoyl}-methyl)-amide] was run?
**A.** Its IC50 is 6900 nM.

**Q.** For `COc1ccc(C2(O)CCC(N3CC(NC(=O)CNC(=O)c4ccc(Cl)c(Cl)c4)C3)CC2)cn1` (centres unmarked) [Example 18, 3,4-Dichloro-N-({1-[4-hydroxy-4-(6-methoxy-pyridin-3-yl)-cyclohexyl]-azetidin-3-ylcarbamoyl}-methyl)-benzamide], which IC50 is on record?
**A.** Its IC50 is 120 nM.

**Q.** For `COc1ccc(C2(O)CCC(N3CC(NC(=O)CNC(=O)c4cccc(C)c4)C3)CC2)cn1` (centres unmarked) [Example 22, N-({1-[4-Hydroxy-4-(6-methoxy-pyridin-3-yl)-cyclohexyl]-azetidin-3-ylcarbamoyl}-methyl)-3-methyl-benzamide], which IC50 is on record?
**A.** The IC50 was 2300 nM.
